Measured values taken from patent US11535584B2, “Homovanillinic acid ester, in particular for creating a warm and/or pungent sensation” (SYMRISE AG, priority 2014, dated 2022).
Like-named read-outs stand apart in the source and are kept apart here.

Key:
rat eyes = conditions: Szolcsanyi, Jancso-Gabor 1975; cited from earlier work
tasters [1] = assay: Tasting of esters of homovanillinic acid: pungency score and profile (Example 5); format: in vivo; conditions: 25 ppm in 5% sugar solution; for Pungency assessed: scale of 1 (very weak)-9 (very strong), 4 tasters
Description: The substance to be tasted was dissolved in ethanol and the ethanolic solution was then diluted with 5% sugar solution (final concentration: 25 ppm). For the tasting, the oral cavity was rinsed and spat out by 4 tasters with approx. 5 ml of the sugar solution.

tasters [2] = assay: as above; format: in vivo; conditions: for Pungency assessed: scale of 1 (very weak)-9 (very strong)
[3] = Warming effect compared to vanillyl butyl ether (Example 11); format: in vivo; conditions: 4-10 ppm in 5% sugar solution vs 10 ppm vanillyl butyl ether
Source text: Test solutions with 4-10 ppm ester of homovanillic acid were sensorially evaluated in a 5% sugar solution and were compared to a test solution of 10 ppm vanillyl butyl ether.

tasters [4] = assay: Isointensity of esters compared to nonivamide and a capsicum extract (Example 6); format: in vivo; conditions: 10 ppm of the ester in 5% sugar solution
Description: The substance to be tasted was dissolved in ethanol and the ethanolic solution was then diluted with 5% sugar solution (final concentration: 10 ppm). As reference, capsicum extract with 1,000,000 SHU (0.3-10 ppm) and nonivamide (0.1-1 ppm) were prepared in 5% sugar solution in increasing concentration. For the tasting, the oral cavity was rinsed and spat out by 4 tasters with approx. 5 ml of the solution to be tasted and assessed against the reference series.

[5] = EFSA / Scientific Committee on Food opinion 2002; cited from earlier work
[6] = Tasting and sensorial assessment of isolated ethyl homovanillate (17) (Example 2); format: in vivo
Description: The primary reaction mixture is pre-fractionated using medium-pressure liquid chromatography (MPLC) (column material: Lewatit VP OC 1064; water/ethanol 3/1; v/v). Subsequently, further separation is carried out via preparative high-pressure liquid chromatography (pHPLC) (column: Phenomenex Luna C18 5μ 150×21.2 mm, flow rate 30 ml/min, detection 210 nm) in the isocratic mode (63% H2O, 37% MeOH). Final isolation of ethyl homovanillate (17) is carried out via semi-preparative high-pressure liquid chromatography (sPHPLC) in the gradient mode (column: YMC Triart C18 5μ 250×10 mm; A: H2O; B: MeOH; 0 min 65% A, 35% B; 25 min 40% A, 60% B; 30 min 100% B; flow rate 3 ml/min; detection: 250 nm). The obtained ethyl homovanillate (17) was subsequently freeze-dried and tasted and sensorially assessed at a dosage of 100 ppm in 5% sugar solution, 0.5% salt solution, 500 ppm caffeine solution and water.

testers [7] = assay: Sensorial assessment of combinations with grains of paradise extract, nonivamide and capsicum extract (Example 9); format: in vivo; conditions: for Effect in combination of nonivamide, capsicum extract and ester: versus combinations without esters (examples 26* and 28*)
testers [8] = assay: Increase in the alcohol pungency of an ethanolic solution (Example 10); format: in vivo
Description: On the basis of a 5% sugar solution with 20% ethanol (example 1), different concentrations (10-100 ppm) of ethyl-2-(4-hydroxy-3-methoxyphenyl) acetate (17), polymethoxylated flavone PMF 60 (Miritz) and combinations (10-50 ppm) of ethyl-2-(4-hydroxy-3-methoxyphenyl) acetate (17) with polymethoxylated flavone PMF 60 (Miritz) (20 ppm) were compared with a second base solution (5% sugar solution with 40% ethanol) (Tab. 4). To this end, 5 testers rinsed their mouth with about 5 ml of the relevant solution to be tasted, spat out the solution and assessed the taste sensation.

trained panelists = assay: Time vs. intensity pungency profile compared with nonivamide (Example 8); format: in vivo; conditions: 25 ppm vs 0.5 ppm nonivamide in 5% sugar solution
Description: To obtain a time vs. intensity profile, trained panelists (n=8-10) rinsed their oral cavity with a gulp of a sample solution (5 ml of a 5% sugar solution). Then, the intensity of the characteristic pungency was assessed at defined time intervals on the basis of a scale without fixed graduation.

[9] = 50 and 100 ppm (examples 17 and 18)

COC(=O)Cc1ccc(O)c(OC)c1 [methyl ester of homovanillic acid]
Pain sensation in rat eyes (rat eyes): active

COc1cc(CC(=O)OC(C)C)ccc1O [compound 7, Isopropyl-2-(4-hydroxy-3-methoxyphenyl) acetate]
Profile (tasters [1]): Late onset, tingling, warming, pungent, somewhat delayed, not long-lasting, pleasant | Pungency assessed (tasters [1]): 3

CCCCCCCCCCOC(=O)Cc1ccc(O)c(OC)c1 [decyl-2-(4-hydroxy-3-methoxyphenyl) acetate, reference compound]
Profile (tasters [1]): weakly pungent, delayed, pear-like and greasy-pulpy secondary effect, throat burns more than the tongue | Pungency assessed (tasters [1]): 2

CCCCCCCOC(=O)Cc1ccc(O)c(OC)c1 [compound 14, Heptyl-2-(4-hydroxy-3-methoxyphenyl) acetate]
Profile (tasters [2]): slightly delayed effect, burning, pungent, warming | Pungency assessed (tasters [2]): 3

CCCOC(=O)Cc1ccc(O)c(OC)c1 [compound 18, Propyl-2-(4-hydroxy-3-methoxyphenyl) acetate]
Profile (tasters [1]): weak and delayed pungency, gradually warming, tingling | Pungency assessed (tasters [1]): 4-5 | Warming effect compared to vanillyl butyl ether [3]: long-lasting warming effect, but which occurred at a comparatively later time | Pain sensation in rat eyes (rat eyes): active

COc1cc(CC(=O)OCCCc2ccccc2)ccc1O [compound 22, 3-Phenylpropyl-2-(4-hydroxy-3-methoxyphenyl) acetate]
Profile (tasters [2]; 2 ppm in 5% sugar solution): delayed effect, pungent, warming, slightly tingling | Pungency assessed (tasters [2]; 2 ppm in 5% sugar solution): 5

CCCCCCOC(=O)Cc1ccc(O)c(OC)c1 [compound 21, Hexyl-2-(4-hydroxy-3-methoxyphenyl) acetate]
Profile (tasters [1]): clearly pungent, slightly delayed effect, warming, relatively fast decrease in pungency | Pungency assessed (tasters [1]): 9 | Concentration of capsicum extract with 1,000,000 SHU of comparable pungency (tasters [4]): ~8.5 ppm | Nonivamide concentration of comparable pungency (tasters [4]): ~0.5 ppm

CCC(C)OC(=O)Cc1ccc(O)c(OC)c1 (stereo not drawn) [compound 8, sec-Butyl-2-(4-hydroxy-3-methoxyphenyl) acetate]
Profile (tasters [1]): very delayed onset, tingling, mainly warming, gradually increasing pungency | Pungency assessed (tasters [1]): 3

COc1cc(CC(=O)OC/C=C/c2ccccc2)ccc1O [compound 2, [(E)-Cinnamyl]-2-(4-hydroxy-3-methoxyphenyl) acetate]
Profile (tasters [2]): delayed effect, very pungent, slightly warming, somewhat mouthwatering | Pungency assessed (tasters [2]): 5-6

COc1cc(CNC(=O)CCCC/C=C/C(C)C)ccc1O [capsaicin, N-(4-hydroxy-3-methoxybenzyl)-8-methyl-(6E)-nonenoic acid amide]
Evaluation of the genotoxic potential [5]: negative result

COc1cc(CC(=O)OCC(C)C)ccc1O [compound 9, Isobutyl-2-(4-hydroxy-3-methoxyphenyl) acetate]
Profile (tasters [1]): quick onset of pungency, warming, slightly biting pungency | Pungency assessed (tasters [1]): 4-5 | Warming effect compared to vanillyl butyl ether [3]: warming effect similar to vanillyl butyl ether, but which lasted for a longer period

CCCCCCCCOC(=O)Cc1ccc(O)c(OC)c1 [octyl-2-(4-hydroxy-3-methoxy-phenyl) acetate, reference compound]
Profile (tasters [1]): slow onset of pungency, late, delayed, greasy-pulpy secondary effect, burning | Pungency assessed (tasters [1]): 7 | Pain sensation in rat eyes (rat eyes): active

CCOC(=O)Cc1ccc(O)c(OC)c1 [compound 17, Ethyl-2-(4-hydroxy-3-methoxyphenyl) acetate]
Taste description ([6]; 100 ppm in 0.5% salt solution): Pungent | Taste description ([6]; 100 ppm in 5% sugar solution): Pungent, warming | Taste description ([6]; 100 ppm in water): Pungent, stinging, slightly warming | Profile (tasters [1]): slightly warming, somewhat pungent | Pungency assessed (tasters [1]): 1-2 | Additional effect in combination with capsicum extract at all concentrations (testers [7]; 2 and 5 ppm capsicum extract with 1,000,000 SHU): pleasantly warming effect, which remained even after the pungency sensation receded | Effect on pungency in combination with grains of paradise extract (testers [7]; 10 and 25 ppm with 30 ppm grains of paradise extract, 5% sugar solution (examples 2 and 3)): faster onset of the pungency | Assessment of the pungency sensation in combination with 2 ppm capsicum extract (testers [7]; [9]): pleasant and not long-lasting | Effect on pungency in combination with 2 ppm capsicum extract with 1,000,000 SHU (testers [7]; [9]): same intensifying and faster onsetting effect | Effect on pungency in combination with 5 ppm capsicum extract with 1,000,000 SHU (testers [7]; 50 and 100 ppm (examples 22 and 23)): quick decline in the pungency | Onset of pungency in combination with nonivamide (testers [7]; 50 and 100 ppm with 0.2 or 0.5 ppm nonivamide): faster onset of the pungency | Intensification of pungency in combination with nonivamide (testers [7]; 50 and 100 ppm with 0.2 or 0.5 ppm nonivamide (examples 7, 8, 12, 13)): the pungency of nonivamide was intensified at both of the tested concentrations, wherein this intensification corresponded to more than just the additive effect | Intensification of the pungency, 2 ppm versus 5 ppm capsicum extract (testers [7]; combination with capsicum extract with 1,000,000 SHU): significantly higher with 2 ppm capsicum extract with 1,000,000 SHU than with 5 ppm | Effect in combination of nonivamide, capsicum extract and ester (testers [7]): quicker decline in the pungency sensation as well as a warming effect | Effect of combination with polymethoxylated flavone PMF 60 (testers [8]; 10-50 ppm with 20 ppm PMF 60 in 5% sugar solution with 20% ethanol (examples 7-9)): an increase of the burning sensation was additionally generated, and an extension of these effects was also achieved | Effect on taste sensation of base solution (testers [8]; 10 ppm in 5% sugar solution with 20% ethanol (example 2)): an increase and an extension of the burning sensation in the mouth | Effect on taste sensation of base solution (testers [8]; 20 ppm and 50 ppm in 5% sugar solution with 20% ethanol): additional pungency effect | Nasal effect of combination with PMF 60 (testers [8]; compared to 5% sugar solution with 40% ethanol): did not show any nasal effect | Sensorially preferred concentration in combination with PMF 60 (testers [8]; with 20 ppm PMF 60 in 5% sugar solution with 20% ethanol): 20-50 ppm | Warming effect compared to vanillyl butyl ether [3]: milder warming effect

CCCCOC(=O)Cc1ccc(O)c(OC)c1 [compound 19, Butyl-2-(4-hydroxy-3-methoxyphenyl) acetate]
Profile (tasters [1]): immediate pungency, quick decrease | Pungency assessed (tasters [1]): 7 | Concentration of capsicum extract with 1,000,000 SHU of comparable pungency (tasters [4]): ~4.5 ppm | Nonivamide concentration of comparable pungency (tasters [4]): ~0.3 ppm | Decrease in pungency compared with nonivamide (trained panelists): considerably faster decrease in pungency | Onset of the pungency compared with nonivamide (trained panelists; identical total intensity): faster onset of the pungency | Intensification in combination with capsicum extract versus additive effect (testers [7]; 10 and 25 ppm with 2 or 5 ppm capsicum extract): the intensifications were more significant than just an additive effect | Effects in combination with capsicum extract (testers [7]; 10 and 25 ppm with 2 or 5 ppm capsicum extract (examples 19, 20, 24, 25)): the same effects were detected even at lower concentrations | Effect in combination of nonivamide, capsicum extract and ester (testers [7]): quicker decline in the pungency sensation as well as a warming effect | Warming effect compared to vanillyl butyl ether [3]: more marked warming effect

COc1cc(CC(=O)OCCCCc2ccccc2)ccc1O [compound 23, 4-Phenylbutyl-2-(4-hydroxy-3-methoxyphenyl) acetate]
Profile (tasters [2]; 2.5 ppm in 5% sugar solution): delayed effect, pungent, delayed warming, burning, slightly tingling | Pungency assessed (tasters [2]; 2.5 ppm in 5% sugar solution): 4-5
